From US3979513A, “1'-Substituted-9,10-dihydroanthracene-9-spiro-4'-piperidine derivatives” (priority 1974, dated 1976)
Read-outs that look alike come from different tables or passages of the source.

Assay: acute toxicity (LD50) in mice
Conditions: mouse, in vivo
Experimental: The corresponding intravenous LD50 is 40 mg./kg. Other LD50 values for compounds of the invention when dosed intravenously are as follows: […]

[1] = iv, dosed intravenously (table 1), read-out: LD50

Compound	LD50 [1] [mg/kg]	LD50 (mice, intravenous, read-out: intravenous LD50) [mg/kg]	LD50 (mice, oral, read-out: oral LD50) [mg/kg]
CC(=O)Oc1cccc2c1Cc1ccccc1C21CCN(C)CC1 [Me 4-OAc H H H, 4-acetoxy-1'-methyl-9,10-dihydroanthracene-9-spiro-4'-piperidine]	43	–	–
CN1CCC2(CC1)c1ccccc1C(O)c1ccccc12 [10-hydroxy-1'-methyl-9,10-dihydroanthracene-9-spiro-4'-piperidine]	–	40	> 250
CN1CCC2(CC1)c1ccccc1C(C)(O)c1c(O)cccc12 (centres unmarked) [Me 4-OH H OH Me, 4,10-dihydroxy-1',10-dimethyl-9,10-dihydroanthracene-9-spiro-4'-piperidine]	25	–	–
Cc1ccc2c(c1)C1(CCN(C)CC1)c1ccccc1C2O (centres unmarked) [Me 2-Me H OH H, 1',2-dimethyl-10-hydroxy-9,10-dihydroanthracene-9-spiro-4'-piperidine]	37	–	–
